Values after ≈ are worked out from the molar mass of the structure shown. Like-named read-outs stand apart in the source and are kept apart here.
Key:
[1] = system: S. aureus ATCC 25923 MS 319; test: MIC, standard microdilution method (NCCLS M7-A5); assay type: cell-based, Staphylococcus aureus; conditions: for MIC: Staphylococcus aureus, ATCC25923, read-out: In vitro activities against bacteria, MIC
[2] = system: S. epidermidis ATCC 12228 MR 11; test: microbe, parasite or virus in culture; assay type: cell-based, Staphylococcus epidermidis; conditions: for MIC: Staphylococcus epidermidis, ATCC12228, read-out: In vitro activities against bacteria, MIC
[3] = system: Moxorella, Pasteurella and Bacteroides spp.; conditions: background literature; cited from earlier work
[4] = system: S. aureus ATCC 43300 MR 214; test: MIC, standard microdilution method (NCCLS M7-A5); assay type: cell-based, Staphylococcus aureus; conditions: for MIC: Staphylococcus aureus, ATCC43300, read-out: In vitro activities against bacteria, MIC
[5] = target: T1, human MAO-A (Homo sapiens, UniProt P21397); test: In vitro MAO-A enzymatic activity (kynuramine substrate, fluorescence); assay type: biochemical; conditions: compound at 10 μM
T1 construct: purchased Gentest, BD, USA; host or cells: SF9 insect cells (membranes)
T1 sequence (P21397 1-527): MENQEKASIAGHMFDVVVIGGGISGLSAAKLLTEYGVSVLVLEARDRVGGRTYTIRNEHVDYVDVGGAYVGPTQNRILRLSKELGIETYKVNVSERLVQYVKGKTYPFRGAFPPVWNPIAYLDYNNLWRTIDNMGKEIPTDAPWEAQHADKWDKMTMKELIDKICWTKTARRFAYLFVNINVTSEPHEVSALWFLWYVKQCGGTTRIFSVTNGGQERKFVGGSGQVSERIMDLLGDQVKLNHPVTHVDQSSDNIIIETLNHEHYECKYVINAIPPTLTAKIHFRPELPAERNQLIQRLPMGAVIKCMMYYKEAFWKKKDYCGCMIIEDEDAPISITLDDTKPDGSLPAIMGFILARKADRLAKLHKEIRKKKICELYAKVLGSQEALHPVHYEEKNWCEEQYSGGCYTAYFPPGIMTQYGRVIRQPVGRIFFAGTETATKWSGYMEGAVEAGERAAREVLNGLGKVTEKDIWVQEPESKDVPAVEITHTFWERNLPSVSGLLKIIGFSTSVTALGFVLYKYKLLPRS

[6] = system: S. pneumoniae ATCC 49619 PR 215; test: MIC, standard microdilution method (NCCLS M7-A5); assay type: cell-based, Streptococcus pneumoniae; conditions: for MIC: Streptococcus pneumoniae, ATCC49619, read-out: In vitro activities against bacteria, MIC
[7] = target: T2, human MAO-B (Homo sapiens, UniProt P27338); test: In vitro MAO-B enzymatic activity (kynuramine substrate, fluorescence); assay type: biochemical; conditions: human MAO-B, compound at 1 μM
T2 construct: purchased Gentest, BD, USA; host or cells: SF9 insect cells (membranes)
T2 sequence (P27338 1-520): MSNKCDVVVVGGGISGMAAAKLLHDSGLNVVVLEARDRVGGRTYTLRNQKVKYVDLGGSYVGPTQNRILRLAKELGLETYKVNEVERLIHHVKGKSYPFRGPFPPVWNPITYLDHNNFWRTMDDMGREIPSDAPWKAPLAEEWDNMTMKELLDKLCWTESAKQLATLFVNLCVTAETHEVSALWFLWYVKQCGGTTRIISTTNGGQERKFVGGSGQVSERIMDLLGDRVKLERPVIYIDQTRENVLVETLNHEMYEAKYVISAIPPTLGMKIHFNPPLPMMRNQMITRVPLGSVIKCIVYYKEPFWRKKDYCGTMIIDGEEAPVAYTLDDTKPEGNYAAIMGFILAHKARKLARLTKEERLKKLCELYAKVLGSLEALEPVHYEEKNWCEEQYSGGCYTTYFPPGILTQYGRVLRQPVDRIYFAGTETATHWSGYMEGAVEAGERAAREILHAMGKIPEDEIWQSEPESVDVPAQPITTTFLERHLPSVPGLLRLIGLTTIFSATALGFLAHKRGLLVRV

[8] = system: Enterococcus; test: Selective activity: geometric mean MIC in Enterococcus; assay type: cell-based; conditions: geometric mean over Enterococcus strains
[9] = system: Staphylococcus; test: Selective activity: geometric mean MIC in Staphylococcus; assay type: cell-based; conditions: for MIC / Geometric Mean MIC Staphylococcus: geometric mean over Staphylococcus strains; for Selectivity Enterococcus/Staphylococcus: ratio of geometric mean MIC Enterococcus to geometric mean MIC Staphylococcus
[10] = S. pneumoniae ATCC 49619 PR 215
[11] = S. epidermidis ATCC 12228 MR 11
[12] = listed as Comparartive Example 1

CC(=O)NC[C@H]1CN(c2ccc(N3CCOCC3)c(F)c2)C(=O)O1 [Linezolid, N-[[(5S)-3-[3-fluoro-4-(4-morpholinyl)phenyl]-2-oxo-5-oxazolidinyl]methyl]acetamide, reference compound]
MIC ([1]; S. aureus ATCC 25923 MS 319): 2 µg/mL (≈ 5.93 µM) | MIC [2]: 1 µg/mL (≈ 2.96 µM) | MIC [3]: 2 to 8 µg/mL | MIC ([4]; S. aureus ATCC 43300 MR 214): 1 µg/mL (≈ 2.96 µM) | inhibition at 10 µM ([5]; read-out: MAO-A % inh (10 μM)): 41% | MIC [6, 10]: 2 µg/mL (≈ 5.93 µM) | inhibition at 1 µM ([7]; read-out: MAO-B % inh (1 μM)): 62%

COc1ccc2cc(C(=O)NC[C@H]3CN(c4ccc(N5CCS(=O)(=O)CC5)c(F)c4)C(=O)O3)c(C)nc2c1 [Ex. 8, 7-methoxy-2-methyl-N-[[(5S)-3-[3-fluoro-4-(1,1-dioxothiomorpholin-4-yl)-phenyl]-2-oxo-5-oxazolidinyl]methyl]-3-quinolinecarboxamide]
MIC ([1]; S. aureus ATCC 25923 MS 319): 2 µg/mL (≈ 3.69 µM) | MIC [2]: 2 µg/mL (≈ 3.69 µM) | MIC ([4]; S. aureus ATCC 43300 MR 214): 2 µg/mL (≈ 3.69 µM) | MIC [6, 10]: 1 µg/mL (≈ 1.84 µM)

COc1ccc2nc(C)c(C(=O)NC[C@H]3CN(c4ccc(N5CCOCC5)c(F)c4)C(=O)O3)cc2c1 [Ex. 18]
Geometric Mean MIC Enterococcus [8]: 8 µg/mL | MIC [9]: 1 µg/mL (≈ 2.02 µM) | Selectivity Enterococcus/Staphylococcus [9]: 8.0

COc1ccc2cc(C(=O)NC[C@H]3CN(c4ccc(N5CCN(C(=O)c6c[nH]cn6)CC5)c(F)c4)C(=O)O3)c(C)nc2c1 [Ex. 31]
In vitro activities against bacteria, MIC ([1]; S. aureus ATCC 25923 MS 319): 4.00 µg/mL | In vitro activities against bacteria, MIC [2, 11]: 2.00 µg/mL | In vitro activities against bacteria, MIC ([4]; S. aureus ATCC 43300 MR 214): 2.00 µg/mL | In vitro activities against bacteria, MIC [6, 10]: 4.00 µg/mL

COc1ccc2cc(C(=O)NC[C@H]3CN(c4ccc(N5CCN(C(=O)C6=NNC(=O)CC6)CC5)c(F)c4)C(=O)O3)c(C)nc2c1 [Ex. 29]
Geometric Mean MIC Enterococcus [8]: 32 µg/mL | Geometric Mean MIC Staphylococcus [9]: 1.7 µg/mL | Selectivity Enterococcus/Staphylococcus [9]: 18.8

COc1ccc2cc(C(=O)NC[C@H]3CN(c4ccc(N5CCOCC5)c(F)c4)C(=O)O3)c(C)nc2c1 [compound 1, reference compound]
Geometric Mean MIC Enterococcus [8, 12]: 4.8 µg/mL | Geometric Mean MIC Staphylococcus [9]: 5.7 µg/mL | Selectivity Enterococcus/Staphylococcus [9, 12]: 0.8

C=CC(=O)N1CCN(c2ccc(N3C[C@H](CNC(=O)c4cc5ccc(OC)cc5nc4C)OC3=O)cc2F)CC1 [Ex. 24]
Geometric Mean MIC Enterococcus [8]: 16 µg/mL | Geometric Mean MIC Staphylococcus [9]: 0.6 µg/mL | Selectivity Enterococcus/Staphylococcus [9]: 27.0

O=C(NC[C@H]1CN(c2ccc(N3CCOCC3)c(F)c2)C(=O)O1)c1coc2ccccc12 [Comparative Example 2, reference compound]
Geometric Mean MIC Enterococcus [8]: 3.4 µg/mL | Geometric Mean MIC Staphylococcus [9]: 12.7 µg/mL | Selectivity Enterococcus/Staphylococcus [9]: 0.3

O=C(NC[C@H]1CN(c2ccc(N3CCOCC3)c(F)c2)C(=O)O1)c1cc2cc([N+](=O)[O-])ccc2o1 [Comparative Example 3, reference compound]
Geometric Mean MIC Enterococcus [8]: 0.7 µg/mL | Geometric Mean MIC Staphylococcus [9]: 0.8 µg/mL | Selectivity Enterococcus/Staphylococcus [9]: 0.9

COc1ccc2cc(C(=O)NC[C@H]3CN(c4ccc(N5CCN(C(=O)c6cccnc6)CC5)c(F)c4)C(=O)O3)c(C)nc2c1 [Ex. 42]
In vitro activities against bacteria, MIC [1]: 1.00 µg/mL | In vitro activities against bacteria, MIC [2]: 0.5 µg/mL | In vitro activities against bacteria, MIC [4]: 0.06 µg/mL | MAO-A % inh (10 μM) [5]: 5% | In vitro activities against bacteria, MIC [6]: 1.00 µg/mL | MAO-B % inh (1 μM) [7]: 7%

COc1ccc2cc(C(=O)NC[C@H]3CN(c4ccc(N5CCN(C(=O)CO)CC5)c(F)c4)C(=O)O3)c(C)nc2c1 [Ex. 35]
Geometric Mean MIC Enterococcus [8]: 5.0 | Geometric Mean MIC Staphylococcus [9]: 0.6 µg/mL | Selectivity Enterococcus/Staphylococcus [9]: 8.3

COc1ccc2cc(C(=O)NC[C@H]3CN(c4ccc(N5CCOCC5)c(F)c4)C(=O)O3)c(C)nc2c1 [Ex. 1, 7-methoxy-2-methyl-N-[[(5S)-3-[3-fluoro-4-(4-morpholinyl)phenyl]-2-oxo-5-oxazolidinyl]methyl]-3-quinolinecarboxamide]
Geometric Mean MIC Enterococcus [8]: 5.7 µg/mL | MIC [9]: 0.6 µg/mL (≈ 1.21 µM) | Selectivity Enterococcus/Staphylococcus [9]: 9.5

COc1ccc2cc(C(=O)NC[C@H]3CN(c4ccc(N5CCN(C(C)=O)CC5)c(F)c4)C(=O)O3)c(C)nc2c1 [Ex. 3, 7-methoxy-2-methyl-N-[[(5S)-3-[3-fluoro-4-(4′-acetyl-4-piperazinyl)-phenyl]-2-oxo-5-oxazolidinyl]methyl]-3-quinolinecarboxamide]
Geometric Mean MIC Enterococcus [8]: 5.7 µg/mL | MIC [9]: 0.4 µg/mL (≈ 0.747 µM) | Selectivity Enterococcus/Staphylococcus [9]: 14.3

COc1ccc2cc(C(=O)NC[C@H]3CN(c4ccc(N5CCN(C(=O)C6CC6)CC5)c(F)c4)C(=O)O3)c(C)nc2c1 [Ex. 34]
Geometric Mean MIC Enterococcus [8]: 40.3 µg/mL | In vitro activities against bacteria, MIC ([1]; S. aureus ATCC 25923 MS 319): 0.50 µg/mL | In vitro activities against bacteria, MIC [2, 11]: 0.50 µg/mL | In vitro activities against bacteria, MIC ([4]; S. aureus ATCC 43300 MR 214): 0.50 µg/mL | MAO-A % inh (10 μM) [5]: 7% | In vitro activities against bacteria, MIC [6, 10]: 0.50 µg/mL | MAO-B % inh (1 μM) [7]: 8% | Geometric Mean MIC Staphylococcus [9]: 0.4 µg/mL | Selectivity Enterococcus/Staphylococcus [9]: 100
